Results: patent US10519148B2, “Acrylic acid derivative, preparation method and use in medicine thereof” (Zhejiang Hisun Pharmaceutical Co., Ltd., priority 2015, dated 2019)

Biological target: T1, ERα (Homo sapiens, UniProt P03372)
T1 construct: host or cells: MCF-7
T1 sequence (P03372 1-595): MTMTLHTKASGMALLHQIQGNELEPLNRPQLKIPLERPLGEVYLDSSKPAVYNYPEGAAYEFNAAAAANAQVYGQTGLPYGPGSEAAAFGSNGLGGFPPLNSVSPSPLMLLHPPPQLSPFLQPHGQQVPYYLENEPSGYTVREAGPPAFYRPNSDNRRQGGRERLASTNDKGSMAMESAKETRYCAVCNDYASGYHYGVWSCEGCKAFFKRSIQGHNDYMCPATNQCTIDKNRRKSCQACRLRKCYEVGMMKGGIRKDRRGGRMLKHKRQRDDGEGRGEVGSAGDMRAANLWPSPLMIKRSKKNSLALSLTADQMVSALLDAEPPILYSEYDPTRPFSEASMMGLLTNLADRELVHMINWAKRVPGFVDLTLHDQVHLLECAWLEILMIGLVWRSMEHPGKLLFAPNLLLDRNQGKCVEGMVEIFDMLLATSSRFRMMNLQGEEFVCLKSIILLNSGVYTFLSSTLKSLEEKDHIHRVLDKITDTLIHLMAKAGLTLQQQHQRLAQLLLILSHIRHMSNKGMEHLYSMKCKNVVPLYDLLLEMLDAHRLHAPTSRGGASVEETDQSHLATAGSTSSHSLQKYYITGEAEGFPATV
Assay: ERα down-regulation immunofluorescence assay in MCF-7 cells
Format: cell-based
Details: immunofluorescence of ERα level, read-out: IC50 (nM) ERα down-degradation
Description: The down-regulation of the preferred compounds of the present invention on the protein level of ERα is evaluated by immunofluorescence assay using human breast cancer cell line MCF-7. MCF-7 cells used in the experiment were revived directly from frozen cells (about 5×10^6). The MCF-7 frozen cell line (Sigma D5921) purchased from Sigma was stored in DMEM medium containing 2 mM […]. 5% (v/v) Charcoal/Dextran-treated bovine serum […] were added to the revived MCF-7 cells and the cell concentration was determined using Coulter Counter.
The cells used for the test were diluted to 3.75×10^4 cells/mL with culture medium and 40 μL/well of the above cell suspension was transferred to 384-well black transparent bottom plates and incubated overnight at 37° C., 5% CO2. 10 mM compound stock solutions were diluted to a series of test concentrations (10 mM, 0.1 mM, 1 μM, 0.01 μM etc.) and dispensed into cell plates. 20 μL of 11.1% (v/v) aqueous formaldehyde solution (phosphate buffered saline) was added to each of the different concentrations of the test compounds and MCF-7 cell culture solution (40 μL), and the final concentration of formaldehyde in the solution was 3.7% (v/v). Cells were fixed at room temperature for 20 minutes, washed twice with 250 μL of PBS/Proclin, and then 40 μL of PBS/Proclin was added and refrigerated at 4° C. The immunostaining of the protein was performed using the automated AutoElisa kit. The PBS/Proclin solution was aspirated from each plate well and then 40 μL of PBS containing 0.5% Tween 20 (v/v) was added for cell permeation. After one hour, the plate was washed with 250 μL of PBS/0.05% Tween 20/Proclin for three times, and 20 μL of ERα rabbit monoclonal antibody (Thermofisher) in PBS/Tween™ 20/3% (w/v) BSA solution (1:1000) was added. The plates were incubated overnight at 4° C., washed three times with 250 μL of PBS/Tween™ 20/Proclin, and then 20 μL of goat anti-rabbit IgG AlexaFluor 594 or goat anti-rabbit IgG AlexaFluor 488 antibody (containing Hoechst stain (1:5000) in PBS/Tween™ 20/3% (w/v) BSA solution was added, and the system was incubated at room temperature for one hour. After the plates were washed three times with 250 μL of PBS/0.05% (v/v) Tween™ 20/Proclin, 20 μL of PBS was added and the paltes were kept in dark place at 4° C. The level of estrogen receptor ERα in MCF-7 cells was calculated through Cellomics Arrayscan detection of fluorescence emission intensity at two emission wave bands at 594 nm (24-hour time point) and 488 nm (5-hour time point). The average fluorescence emission intensity of each cell is positively correlated with the ERα receptor level of the cell. The primitive fluorescence data was used to obtain the fitting curve by software such as Origin or Genedata. Half maximal inhibitory concentration IC50 was used to characterize the down-regulation of estrogen receptor ERα by the test compounds, which is the concentration of the test compound when the fluorescence emission intensity is reduced to 50% of the average maximum fluorescence intensity.

Structure (SMILES) | DC50
C[C@@H]1Cc2c([nH]c3cccc(F)c23)[C@@H](c2c(F)cc(/C=C/C(=O)O)cc2F)N1CC1(F)CC1 [Example 12, (E)-3-(3,5-difluoro-4-((1R,3R)-5-fluoro-2-((1-fluorocyclopropyl)methyl)-3-methyl-2,3,4,9-tetrahydro-1H-pyrido[3,4-b]indol-1-yl)phenyl)acrylic acid] | 0.1 to 10 nM
C[C@@H]1Cc2c([nH]c3ccccc23)[C@@H](c2c(F)cc(/C=C/C(=O)O)cc2F)N1CC1(F)CC1 [Example 1, (E)-3-(3,5-difluoro-4-((1R,3R)-2-((1-fluorocyclopropyl)methyl)-3-methyl-2,3,4,9-tetrahydro-1H-pyrido[3,4-b]indol-1-yl)phenyl)acrylic acid] | 0.1 to 10 nM
